Reference: ChEMBL document CHEMBL5661979, “Pharmacological inhibition of BMK1 suppresses tumor growth through promyelocytic leukemia protein” (Cancer Cell, 2010)

Key:
Assay type in all cases: subcellular
[1] = target: Protein kinase C iota type (Homo sapiens, UniProt P41743); assay: Inhibition of PKCiota in human HeLa cells lysate pre incubated for 15 mins followed by ADP acyl phosphate probe addition and measured after 10 mins by LC-MS/MS analysis
[2] = target: Serine/threonine-protein kinase ULK2 (Homo sapiens) (UniProt Q8IYT8); assay: Inhibition of ULK2 in human HeLa cells lysate at 2 uM pre incubated for 15 mins followed by ADP acyl phosphate probe addition and measured after 10 mins by LC-MS/MS analysis relative to control; details: time 25.0 min
[3] = target: Serine/threonine-protein kinase tousled-like 2 (Homo sapiens, UniProt Q86UE8); assay: Inhibition of TLK2 in human HeLa cells lysate pre incubated for 15 mins followed by ADP acyl phosphate probe addition and measured after 10 mins by LC-MS/MS analysis
[4] = target: T1, Mixed lineage kinase domain-like protein (Homo sapiens) (UniProt Q8NB16); assay: Inhibition of MLKL in human HeLa cells lysate at 10 uM pre incubated for 15 mins followed by ATP acyl phosphate probe addition and measured after 10 mins by LC-MS/MS analysis relative to control; details: time 25.0 min
T1 sequence (whole entry): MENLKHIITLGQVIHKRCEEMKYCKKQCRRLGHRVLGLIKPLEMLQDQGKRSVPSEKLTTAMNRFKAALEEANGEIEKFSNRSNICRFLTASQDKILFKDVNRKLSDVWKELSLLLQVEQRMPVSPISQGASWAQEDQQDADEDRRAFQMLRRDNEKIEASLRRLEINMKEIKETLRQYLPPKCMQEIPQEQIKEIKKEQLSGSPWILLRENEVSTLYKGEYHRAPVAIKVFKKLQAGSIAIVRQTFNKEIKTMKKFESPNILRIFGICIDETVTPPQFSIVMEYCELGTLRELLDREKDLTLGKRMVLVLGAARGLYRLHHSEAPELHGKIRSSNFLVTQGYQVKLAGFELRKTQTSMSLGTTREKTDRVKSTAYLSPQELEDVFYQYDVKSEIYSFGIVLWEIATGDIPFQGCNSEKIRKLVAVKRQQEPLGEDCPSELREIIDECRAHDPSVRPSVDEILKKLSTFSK

[5] = target: T2, Dual specificity mitogen-activated protein kinase kinase 3 (Homo sapiens) (UniProt P46734); assay: Inhibition of MAP2K3 in human HeLa cells lysate at 10 uM pre incubated for 15 mins followed by ADP acyl phosphate probe addition and measured after 10 mins by LC-MS/MS analysis relative to control; details: time 25.0 min
T2 sequence (whole entry): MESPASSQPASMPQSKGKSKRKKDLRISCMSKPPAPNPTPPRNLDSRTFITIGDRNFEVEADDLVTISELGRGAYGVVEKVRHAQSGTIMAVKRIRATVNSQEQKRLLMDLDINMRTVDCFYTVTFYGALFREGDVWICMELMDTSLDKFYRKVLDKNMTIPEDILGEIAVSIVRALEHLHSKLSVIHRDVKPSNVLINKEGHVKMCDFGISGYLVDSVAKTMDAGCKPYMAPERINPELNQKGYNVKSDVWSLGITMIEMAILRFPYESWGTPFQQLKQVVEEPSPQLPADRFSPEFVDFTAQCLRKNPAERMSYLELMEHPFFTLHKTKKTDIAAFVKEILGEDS

[6] = target: Phosphatidylinositol 5-phosphate 4-kinase type-2 gamma (Homo sapiens, UniProt Q8TBX8); assay: Inhibition of PIP5K2C in human HeLa cells lysate pre incubated for 15 mins followed by ATP acyl phosphate probe addition and measured after 10 mins by LC-MS/MS analysis
[7] = target: Tyrosine-protein kinase CSK (Homo sapiens, UniProt P41240); assay: Inhibition of CSK in human HeLa cells lysate pre incubated for 15 mins followed by ADP acyl phosphate probe addition and measured after 10 mins by LC-MS/MS analysis
[8] = target: Ribosomal protein S6 kinase alpha-3 (Homo sapiens, UniProt P51812); assay: Inhibition of RSK2 domain 1 active form in human HeLa cells lysate at 50 uM pre incubated for 15 mins followed by ATP acyl phosphate probe addition and measured after 10 mins by LC-MS/MS analysis relative to control; details: time 25.0 min
[9] = target: DNA-dependent protein kinase catalytic subunit (Homo sapiens, UniProt P78527); assay: Inhibition of PRKDC in human HeLa cells lysate at 2 uM pre incubated for 15 mins followed by ATP acyl phosphate probe addition and measured after 10 mins by LC-MS/MS analysis relative to control; details: time 25.0 min
[10] = target: Phosphatidylinositol 4-phosphate 3-kinase C2 domain-containing subunit beta (Homo sapiens, UniProt O00750); assay: Inhibition of PIK3C2B in human HeLa cells lysate at 50 uM pre incubated for 15 mins followed by ATP acyl phosphate probe addition and measured after 10 mins by LC-MS/MS analysis relative to control; details: time 25.0 min
[11] = target: Ribosomal protein S6 kinase alpha-1 (Homo sapiens, UniProt Q15418); assay: Inhibition of RSK1 domain 2 in human HeLa cells lysate at 10 uM pre incubated for 15 mins followed by ATP acyl phosphate probe addition and measured after 10 mins by LC-MS/MS analysis relative to control; details: time 25.0 min
[12] = target: Dual specificity mitogen-activated protein kinase kinase 1 (Homo sapiens, UniProt Q02750); assay: Inhibition of MAP2K1 in human HeLa cells lysate pre incubated for 15 mins followed by ADP acyl phosphate probe addition and measured after 10 mins by LC-MS/MS analysis
[13] = target: Phosphatidylinositol 5-phosphate 4-kinase type-2 beta (Homo sapiens, UniProt P78356); assay: Inhibition of PIP5K2B in human HeLa cells lysate pre incubated for 15 mins followed by ATP acyl phosphate probe addition and measured after 10 mins by LC-MS/MS analysis

Sequence of DNA-dependent protein kinase catalytic subunit (P78527 whole entry, the tested form may be a part): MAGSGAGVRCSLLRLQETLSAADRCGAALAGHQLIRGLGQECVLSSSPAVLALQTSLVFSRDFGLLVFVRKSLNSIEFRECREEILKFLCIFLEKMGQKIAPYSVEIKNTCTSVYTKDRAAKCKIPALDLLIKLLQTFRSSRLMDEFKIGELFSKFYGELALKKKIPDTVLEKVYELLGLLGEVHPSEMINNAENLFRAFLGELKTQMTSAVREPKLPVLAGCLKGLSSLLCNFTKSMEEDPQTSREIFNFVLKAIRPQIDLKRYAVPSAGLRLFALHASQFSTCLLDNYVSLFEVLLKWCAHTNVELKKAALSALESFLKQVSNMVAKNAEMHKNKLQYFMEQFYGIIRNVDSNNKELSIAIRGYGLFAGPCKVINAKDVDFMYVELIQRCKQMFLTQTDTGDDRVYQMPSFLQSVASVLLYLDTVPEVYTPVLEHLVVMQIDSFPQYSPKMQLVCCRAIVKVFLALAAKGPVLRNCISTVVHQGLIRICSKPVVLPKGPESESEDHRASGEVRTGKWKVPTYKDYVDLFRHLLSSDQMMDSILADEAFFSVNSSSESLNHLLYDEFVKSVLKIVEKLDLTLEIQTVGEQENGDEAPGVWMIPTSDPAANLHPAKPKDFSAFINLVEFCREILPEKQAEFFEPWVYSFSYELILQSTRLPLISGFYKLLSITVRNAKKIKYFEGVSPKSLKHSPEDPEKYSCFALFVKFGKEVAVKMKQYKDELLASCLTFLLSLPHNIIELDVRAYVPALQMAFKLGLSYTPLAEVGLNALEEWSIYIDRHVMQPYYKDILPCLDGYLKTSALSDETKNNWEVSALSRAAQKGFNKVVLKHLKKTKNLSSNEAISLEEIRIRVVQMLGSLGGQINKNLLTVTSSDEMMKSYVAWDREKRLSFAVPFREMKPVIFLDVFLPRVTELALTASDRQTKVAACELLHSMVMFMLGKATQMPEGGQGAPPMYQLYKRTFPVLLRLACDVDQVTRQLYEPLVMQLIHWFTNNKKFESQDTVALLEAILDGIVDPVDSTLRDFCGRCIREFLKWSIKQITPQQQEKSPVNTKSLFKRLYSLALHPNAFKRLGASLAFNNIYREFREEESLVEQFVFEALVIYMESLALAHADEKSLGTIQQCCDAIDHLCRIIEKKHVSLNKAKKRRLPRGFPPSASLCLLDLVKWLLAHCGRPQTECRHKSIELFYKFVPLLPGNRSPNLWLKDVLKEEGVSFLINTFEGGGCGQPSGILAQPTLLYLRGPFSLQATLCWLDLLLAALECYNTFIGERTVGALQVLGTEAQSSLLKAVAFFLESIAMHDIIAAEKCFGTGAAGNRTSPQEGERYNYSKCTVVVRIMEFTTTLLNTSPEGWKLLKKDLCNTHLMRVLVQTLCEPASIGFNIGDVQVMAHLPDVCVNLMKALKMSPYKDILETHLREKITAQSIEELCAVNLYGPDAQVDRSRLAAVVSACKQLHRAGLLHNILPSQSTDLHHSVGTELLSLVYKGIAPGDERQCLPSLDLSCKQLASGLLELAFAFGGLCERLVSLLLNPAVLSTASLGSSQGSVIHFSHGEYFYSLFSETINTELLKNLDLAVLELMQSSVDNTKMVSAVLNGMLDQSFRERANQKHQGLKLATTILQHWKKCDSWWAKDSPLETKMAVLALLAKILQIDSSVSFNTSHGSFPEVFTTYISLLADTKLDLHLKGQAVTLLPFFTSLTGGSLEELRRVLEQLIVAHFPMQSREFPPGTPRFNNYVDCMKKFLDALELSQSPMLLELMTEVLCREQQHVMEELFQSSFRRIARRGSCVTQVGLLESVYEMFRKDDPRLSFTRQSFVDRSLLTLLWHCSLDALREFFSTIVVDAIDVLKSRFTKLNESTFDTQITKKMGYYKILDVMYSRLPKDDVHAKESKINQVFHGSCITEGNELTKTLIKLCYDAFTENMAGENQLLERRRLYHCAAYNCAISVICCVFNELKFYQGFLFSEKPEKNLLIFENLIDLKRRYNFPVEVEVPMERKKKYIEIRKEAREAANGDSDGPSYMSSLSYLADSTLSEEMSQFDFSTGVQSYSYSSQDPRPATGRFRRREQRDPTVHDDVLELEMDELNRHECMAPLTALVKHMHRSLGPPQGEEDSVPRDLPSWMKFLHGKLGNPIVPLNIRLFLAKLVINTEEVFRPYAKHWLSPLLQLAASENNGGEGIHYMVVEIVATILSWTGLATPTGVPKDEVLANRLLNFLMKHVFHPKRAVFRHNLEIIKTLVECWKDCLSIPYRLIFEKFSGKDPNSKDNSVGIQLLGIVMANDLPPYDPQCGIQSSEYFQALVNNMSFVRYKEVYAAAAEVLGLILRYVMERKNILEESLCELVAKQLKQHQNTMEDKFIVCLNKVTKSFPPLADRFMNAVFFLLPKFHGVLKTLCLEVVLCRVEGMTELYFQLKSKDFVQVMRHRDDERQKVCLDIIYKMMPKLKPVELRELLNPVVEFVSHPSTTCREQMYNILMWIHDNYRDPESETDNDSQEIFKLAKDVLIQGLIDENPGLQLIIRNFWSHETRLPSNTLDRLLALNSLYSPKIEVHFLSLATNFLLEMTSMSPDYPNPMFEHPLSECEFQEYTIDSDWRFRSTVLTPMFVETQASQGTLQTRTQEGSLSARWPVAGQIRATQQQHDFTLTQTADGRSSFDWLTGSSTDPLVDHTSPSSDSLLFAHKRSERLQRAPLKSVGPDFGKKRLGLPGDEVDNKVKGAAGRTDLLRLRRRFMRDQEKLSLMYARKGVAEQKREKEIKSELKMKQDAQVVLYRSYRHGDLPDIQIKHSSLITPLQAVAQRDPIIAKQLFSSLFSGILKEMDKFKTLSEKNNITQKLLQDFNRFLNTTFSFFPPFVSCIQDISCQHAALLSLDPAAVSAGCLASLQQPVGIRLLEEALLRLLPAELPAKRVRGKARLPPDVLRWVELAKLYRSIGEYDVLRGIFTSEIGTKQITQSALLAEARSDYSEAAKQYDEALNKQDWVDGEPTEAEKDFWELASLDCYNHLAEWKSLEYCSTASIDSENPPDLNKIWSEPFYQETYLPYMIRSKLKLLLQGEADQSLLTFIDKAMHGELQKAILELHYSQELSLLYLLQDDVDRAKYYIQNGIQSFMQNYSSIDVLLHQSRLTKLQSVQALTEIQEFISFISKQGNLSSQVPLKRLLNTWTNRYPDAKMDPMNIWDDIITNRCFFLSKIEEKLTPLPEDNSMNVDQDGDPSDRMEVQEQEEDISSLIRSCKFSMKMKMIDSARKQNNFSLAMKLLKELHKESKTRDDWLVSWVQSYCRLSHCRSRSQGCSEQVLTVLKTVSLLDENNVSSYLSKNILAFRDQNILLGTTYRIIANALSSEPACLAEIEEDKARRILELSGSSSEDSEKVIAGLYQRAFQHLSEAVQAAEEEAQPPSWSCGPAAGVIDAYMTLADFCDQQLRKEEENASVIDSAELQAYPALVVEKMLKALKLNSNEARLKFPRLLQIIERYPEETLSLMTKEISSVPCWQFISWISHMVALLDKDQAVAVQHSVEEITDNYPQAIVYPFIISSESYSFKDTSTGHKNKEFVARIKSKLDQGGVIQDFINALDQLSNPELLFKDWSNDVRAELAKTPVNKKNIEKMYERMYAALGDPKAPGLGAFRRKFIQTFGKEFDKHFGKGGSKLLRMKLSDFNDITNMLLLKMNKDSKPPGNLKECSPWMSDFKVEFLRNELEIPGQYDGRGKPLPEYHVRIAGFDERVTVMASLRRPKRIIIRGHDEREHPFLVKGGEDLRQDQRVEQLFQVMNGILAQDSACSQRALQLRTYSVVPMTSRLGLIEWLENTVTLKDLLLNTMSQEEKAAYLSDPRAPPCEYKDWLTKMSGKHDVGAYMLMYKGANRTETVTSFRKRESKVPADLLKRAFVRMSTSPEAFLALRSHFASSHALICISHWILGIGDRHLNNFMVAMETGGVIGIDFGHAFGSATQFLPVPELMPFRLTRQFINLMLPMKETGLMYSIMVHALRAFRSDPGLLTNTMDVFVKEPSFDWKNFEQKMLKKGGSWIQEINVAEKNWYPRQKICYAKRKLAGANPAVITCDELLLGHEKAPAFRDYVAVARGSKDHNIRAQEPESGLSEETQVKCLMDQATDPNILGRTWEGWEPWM
Sequence of Ribosomal protein S6 kinase alpha-1 (Q15418 whole entry, the tested form may be a part): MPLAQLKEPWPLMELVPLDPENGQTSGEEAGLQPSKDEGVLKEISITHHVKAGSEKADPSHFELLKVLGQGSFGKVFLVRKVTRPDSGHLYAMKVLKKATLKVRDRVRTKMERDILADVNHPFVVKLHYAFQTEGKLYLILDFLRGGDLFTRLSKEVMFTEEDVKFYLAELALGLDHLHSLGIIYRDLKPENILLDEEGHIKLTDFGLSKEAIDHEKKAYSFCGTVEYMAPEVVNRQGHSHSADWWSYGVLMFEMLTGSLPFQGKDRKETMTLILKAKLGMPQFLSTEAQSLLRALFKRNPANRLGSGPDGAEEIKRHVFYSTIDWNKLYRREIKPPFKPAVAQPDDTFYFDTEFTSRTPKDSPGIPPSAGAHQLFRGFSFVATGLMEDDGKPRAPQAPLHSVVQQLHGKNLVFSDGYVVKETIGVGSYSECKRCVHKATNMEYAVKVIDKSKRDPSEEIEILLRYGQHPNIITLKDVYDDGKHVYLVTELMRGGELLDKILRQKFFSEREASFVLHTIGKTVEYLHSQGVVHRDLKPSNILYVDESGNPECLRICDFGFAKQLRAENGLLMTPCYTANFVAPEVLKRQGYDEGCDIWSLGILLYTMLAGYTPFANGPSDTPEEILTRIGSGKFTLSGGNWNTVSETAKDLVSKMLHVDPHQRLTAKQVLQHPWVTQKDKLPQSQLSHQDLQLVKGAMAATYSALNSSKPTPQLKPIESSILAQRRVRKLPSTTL

CCOc1cc(N2CCC(O)CC2)ccc1Nc1ncc2c(n1)N(C)c1ccccc1C(=O)N2C
IC50 [1]: > 50 µM
inhibition [2]: 7.3%
IC50 [3]: > 50 µM
inhibition [4]: -9.8%
inhibition [5]: -9.7%
IC50 [6]: > 50 µM
IC50 [7]: > 50 µM
inhibition [8]: 11.5%
inhibition [9]: 0.6%
inhibition [10]: 46.3%
inhibition [11]: 20.9%
IC50 [12]: > 50 µM
IC50 [13]: > 50 µM
